This note sets out measurements from ChEMBL document CHEMBL3507680, “University of Dundee, Gates Library screen for HepG2 cell viability”.

The data set is described as follows: Human HepG2 cell viability assay in 384 well format. It counts as toxicity, cell-based. Also on record: dose 125 nL, time 70.5 hour; concentration not given beside the values. Conditions: HepG2 cells, read-out: Inhibition.
As to `O=C1CCC(=O)c2oc3ccccc3c2N1`, the cytotoxicity at 70.5 h was -5.85%. In the case of `NC(=O)c1nc(-c2cccc(Cl)c2)oc1N`, the cytotoxicity at 70.5 h was -14.1%.

For the compound `CN(C)CC(=O)N1C[C@@H](Oc2ccccn2)[C@H]2OCCC[C@H]21`, the cytotoxicity at 70.5 h was 9.63%. The figure for `O=C(Cc1ccsc1)N1CCn2cc(Cn3cncn3)nc2C1` is 2.98%. On to `O=C(Cc1ccsc1)N1C[C@@H]2C[C@@H](c3nnc(C4CC4)o3)O[C@@H]2C1`, for which the cytotoxicity at 70.5 h came out at 4.61%. To `Cn1nccc1C(=O)N1CCCC2(CCN(c3ccsc3)C2=O)C1` (stereo unspecified) belongs 10.3%. The figure for `Cc1nccc([C@@H]2C[C@@H]3CCN(Cc4cccs4)C[C@H]3O2)n1` is 4.44%. The figure for `CNc1nnc(CCn2nc(C)c(Br)c2C)s1` is 19.6%. For `O=C(Cn1nc(C(F)(F)F)c(Cl)c1C1CC1)NN1CCOCC1`, the cytotoxicity at 70.5 h is 12.9%. As for `CN(Cc1cnn(C)c1)C(=O)c1cc(C(F)(F)F)n(C)n1`, the cytotoxicity at 70.5 h was -15.3%. The figure for `Cc1nnc(NC(=O)C(C)n2ncc(Br)c2C)s1` (stereo unspecified) is 24.3%. The figure for `Cn1cc(Br)c(C(=O)NCCCn2cc(Cl)cn2)n1` is 0.918%; for `Cc1nc(NC(=O)C(C)n2ncc(Br)c2C)sc1C` (stereo unspecified) it is 1.11%; for `Cc1nn(CCC(=O)N2CCN(Cc3cnn(C)c3C)CC2)c(C)c1Br` it is 1.42%.

For `CCn1cc(NC(=O)c2c(C)nn(C)c2C)c(C(N)=O)n1`, the cytotoxicity at 70.5 h is 19%. Take `CCn1ncc(CN(C)C(=O)c2cc(C(F)(F)F)n(C)n2)c1C`: the cytotoxicity at 70.5 h is -17.2%. To `CNC(=O)c1nn(C)cc1NC(=O)C(C)n1ncc(Cl)c1C` (stereo unspecified) belongs -6.57%; to `CCn1ncc(Cl)c1CN(C)C(=O)CCn1ncc(Br)c1C`, -18%; to `CCn1cc(S(=O)(=O)NC2CCCC2)cn1`, -11.8%. The figure for `COc1ccc(OC)c(C(C)NS(=O)(=O)c2cnn(C)c2)c1` (stereo unspecified) is -12%. Turning to `CCS(=O)(=O)N1CCN(C(=O)c2ccc(Cn3cc(Br)cn3)cc2)CC1`, the cytotoxicity at 70.5 h was -6.35%.

Consider `Cc1cccc(OCc2ccc(C(=O)N3N=CCC3(O)C(F)(F)F)o2)c1` (stereo unspecified), for which the cytotoxicity at 70.5 h was 9.08%. The figure for `Cn1nc(C(=O)N2CCOCC2)cc1C(=O)Nc1ncc(Cl)cc1Cl` is 14.9%; for `FC(F)(F)c1cc(-c2cccs2)nc(N2CCN3CCCC3C2)n1` (stereo unspecified) it is -13.6%. To `Cc1n[nH]c(C)c1S(=O)(=O)N(C)Cc1nn(C)c(Cl)c1Cl` belongs 22.3%; to `Cc1nn(C)c(C)c1CN(C)S(=O)(=O)c1c(C)n[nH]c1C`, -5.08%; to `CCN(Cc1c(C)nn(CC)c1C)S(=O)(=O)c1cn(C)nc1C`, -2.98%.

In the case of `CCN(Cc1c(C)nn(CC)c1C)S(=O)(=O)c1cnn(C)c1C`, the cytotoxicity at 70.5 h is 14.5%. To `CCN(Cc1c(C)nn(CC)c1C)S(=O)(=O)c1cnn(C)c1` belongs -6%. The figure for `Cn1ncc(C(=O)O)c1C(=O)Nc1nc2ccccc2s1` is 14.7%; for `CCOc1ccc2nc(NC(=O)c3c(C(=O)O)cnn3C)sc2c1` it is -14.2%. To `Cn1ncc(C(=O)O)c1C(=O)Nc1nc2ccc(Br)cc2s1` belongs 14.8%. For the compound `COC(=O)c1cc(C2CC2)nc2c(C#N)cnn12`, the cytotoxicity at 70.5 h was determined as 25%. The figure for `CCn1ccc(-c2cc(C(=O)O)n3nc(C)c(Cl)c3n2)n1` is -9.11%; for `CCC(CCNC(=O)c1cc(C2CC2)nc2c1cnn2C)n1cccn1` (stereo unspecified) it is -19.4%. Consider `CCC(=O)NCCNC(=O)c1nn(C)c(C)c1Cl`, for which the cytotoxicity at 70.5 h was -11.9%. To `CCn1cc(-c2cc(C(F)(F)F)nc(NC3CCCC3)n2)c(C)n1` belongs -6.79%; to `CCOC(=O)CNC(=O)c1cc(-c2ccccc2)nc2ncnn12`, 1.18%. To `N#Cc1cn[nH]c1NCc1cc(Cl)cc(Cl)c1O` belongs 17.4%; to `COc1cc(NCc2cccnc2)c(-c2nn[nH]n2)cc1OC`, -11.1%.

With `COc1ccc(-c2cc(C3(O)CCCC3)on2)cc1`, the cytotoxicity at 70.5 h came to 1.51%. To `Nc1nnc(Cn2nnc(-c3ccccc3F)n2)s1` belongs -12.8%. On to `Nc1nnnn1NCc1cccc2ccccc12`, for which the cytotoxicity at 70.5 h is -11.8%. On to `CCCC(C)(O)c1cc(C(N)=O)no1` (stereo unspecified), for which the cytotoxicity at 70.5 h was -9.46%. For `Clc1cccc(-n2cnnn2)c1N1CCCCC1`, the cytotoxicity at 70.5 h turned out to be 29.1%. To `Clc1cccc(-n2cnnn2)c1N1CCOCC1` belongs -5.42%; to `COc1c(CC2CC(C(=O)O)=NO2)c(Br)c2c(c1OC)OCO2` (stereo unspecified), -7.83%.

`COc1c(CC2CC(CO)=NO2)c(Br)c2c(c1OC)OCO2` (stereo unspecified): the cytotoxicity at 70.5 h was -0.342%. The figure for `COc1cc(CC2CC(c3ccc4c(c3)OCO4)=NO2)cc2c1OCO2` (stereo unspecified) is -9.64%. The figure for `COc1cc(C2SCC(=O)Nc3[nH]ncc32)c(OC)c2c1OCO2` (stereo unspecified) is -12.7%. The figure for `COc1c(C2CC(=O)Nc3[nH]ncc32)cc2c(c1OC)OCO2` (stereo unspecified) is -13.5%; for `O=C1CC(c2cccc(Cl)c2)c2snc(C(=O)O)c2N1` (stereo unspecified) it is -5.92%.

With `CC(=O)c1c(O)ccnc1C(F)(F)F`, the cytotoxicity at 70.5 h was -3.79%. The figure for `Cc1cc2ccccc2n1CC(=O)NCC(=O)N1CCOCC1` is -13.2%; for `O=C(c1cc(-c2cccs2)cs1)N1CCOCC1` it is -8.23%; for `CCN1CCN(C(=O)c2cc(-c3cccs3)cs2)CC1` it is 15.8%.

`O=C(NC1CCCC1)c1cc(Sc2ncccn2)ccn1`: the cytotoxicity at 70.5 h is -13.6%. On to `Cc1cc(C(=O)Nc2cnn(CC(F)(F)F)c2)nc(N2CCOCC2)n1`, for which the cytotoxicity at 70.5 h was -13.4%.

In the case of `Cc1c(NC(=O)c2cccc(Br)c2)c(C(=O)N(C)C)nn1C`, the cytotoxicity at 70.5 h came to 22.7%. To `CCn1nc(C)c(C(=O)NCc2csc(C3CC3)n2)c1C` belongs 1.51%; to `Cc1cccc2c1cnn2CCC(=O)NCc1csc(C2CC2)n1`, -8.07%. To `Cc1ccnn1CC(=O)Nc1cc(-c2ccncc2)[nH]n1` belongs -6.24%; to `CN1CCN(C(=O)c2cc(-c3ccco3)cs2)CC1`, -20.5%. To `CC1CCCN(C(=O)c2cc(-c3ccco3)cs2)C1` (stereo unspecified) belongs -14.8%; to `CC1CCCN(C(=O)c2ccc(-c3ccco3)o2)C1` (stereo unspecified), -22.7%; to `CCn1cc(N2Cc3nc(N4CCC(O)CC4)ncc3C2=O)cn1`, 2.23%. For `Cc1nc(Nc2cnccn2)cc(C2CCN(c3ncccn3)C2)n1` (stereo unspecified), the cytotoxicity at 70.5 h was -12.7%. The figure for `CN[C@H]1CC[C@]2(CC1)CNC(=O)c1cc(C)ccc1O2` is -8.44%. On to `CC(=O)N(C)[C@H]1CC[C@]2(CC1)CNC(=O)c1cc(C)ccc1O2`, for which the cytotoxicity at 70.5 h was -11.3%. To `COCC(=O)N1CCCCC1c1ccncn1` (stereo unspecified) belongs 10.7%.

Take `O=C(O)COc1ccccc1CN1CCCC1c1cnccn1` (stereo unspecified): the cytotoxicity at 70.5 h was -9.06%. To `COCC(=O)N1CCC(C(=O)c2cc(C)cnc2N)CC1` belongs -1.24%. Take `COCCC(=O)N1CCC(C(=O)c2cc(C)cnc2N)CC1`: the cytotoxicity at 70.5 h is -8.64%. The figure for `COCC(=O)N1CCCCC1c1ccnc(Nc2cnccn2)n1` (stereo unspecified) is -7.98%; for `Cc1nc(C2CCCN2C(=O)COc2ccccc2)ncc1C(N)=O` (stereo unspecified) it is -4.1%. On to `Cc1nc(C2CCCN2C(=O)Cc2ccc(F)cc2)ncc1C(N)=O` (stereo unspecified), for which the cytotoxicity at 70.5 h was -8.28%. To `Cc1noc(C)c1-c1cncc(C2CCCN2Cc2ncccc2F)n1` (stereo unspecified) belongs -6.52%. The figure for `CNc1cc(C2CCCN(Cc3ccccc3OCC(=O)O)C2)ccn1` (stereo unspecified) is -8.72%.

On to `O=C(N1CCCCC1)N1CCCC(c2ncncc2-c2ccncc2)C1` (stereo unspecified), for which the cytotoxicity at 70.5 h is -8.3%. To `CC(=O)N1CCCC(c2ncncc2-c2ccncc2)C1` (stereo unspecified) belongs -7.71%.

As to `COc1ccc(C2Nc3cc(Cl)ccc3C3=NCCN32)cc1O` (stereo unspecified), the cytotoxicity at 70.5 h is -1.91%. To `Cc1nn(C)c(C)c1-c1cnc(C2CCCN(S(C)(=O)=O)C2)cn1` (stereo unspecified) belongs -9.63%; to `Cc1cc(CCC(N)=O)cc(C2CCCN2Cc2cnc(C)nc2)n1` (stereo unspecified), -7.32%. To `Cc1cc(N2CCCC2c2cncc(N(C)C)n2)ncn1` (stereo unspecified) belongs 1.3%; to `Cc1ccnc(C2CCCN2C(=O)CN(C)C)n1` (stereo unspecified), -1.48%; to `Cc1cccc(C(=O)N2CC(Cc3nccc4ccn(C)c34)C2)n1`, 1.37%. The figure for `Cc1nc(C2CCCN2C(=O)c2ccc(F)cc2)ncc1C(N)=O` (stereo unspecified) is -3.31%; for `CC(=O)N1CCN(c2cc(C3CN(C(C)=O)CCO3)nc(C)n2)CC1` (stereo unspecified) it is -4.45%.

As to `COc1ccccc1CN1CCC(c2nn(CCN)c3nccnc23)C1` (stereo unspecified), the cytotoxicity at 70.5 h was -0.747%.

As for `Cc1ccccc1CN1CCC(c2nn(CCN)c3nccnc23)C1` (stereo unspecified), the cytotoxicity at 70.5 h was -0.306%.

Take `CCC(CC)C(=O)N1CCC(c2nn(CCN)c3nccnc23)C1` (stereo unspecified): the cytotoxicity at 70.5 h is -4.84%. In the case of `O=C(CC1CCCCC1)N1CCC(c2ncc3c(n2)CCNC3)CC1`, the cytotoxicity at 70.5 h was -7.09%. To `CCC(=O)N1CCC(c2ncc3c(n2)CCNC3)CC1` belongs -4.58%; to `CN1CCCCC1c1ncc2c(n1)CCN(CCCc1ccccc1)C2` (stereo unspecified), 16.2%. To `O=C(C1CCCC1)N1CCC(c2ncc3c(n2)CCNC3)C1` (stereo unspecified) belongs -5.84%; to `NC(=O)CN1CCCC(c2nccnc2Oc2cccc(F)c2)C1` (stereo unspecified), -9.46%; to `O=c1c2sccc2nc2n1CCN(Cc1ccsc1)CC2`, 17.3%.

Regarding `CCS(=O)(=O)N1C[C@@H](Oc2ccccn2)[C@H]2OCCC[C@H]21`, the cytotoxicity at 70.5 h came out at 25.1%. To `O=C1COC2(CCN(Cc3nccs3)CC2)CN1CC1CC1` belongs 6.87%; to `Cn1cccc1CN1CCC2(CC1)CCN(C(=O)c1cnccn1)CC2`, 10.8%; to `CN1CC(=O)N(c2cccc(F)c2)CC12CCN(Cc1ccncc1)C2` (stereo unspecified), 9.43%.
